Assay results: ChEMBL document CHEMBL1275577, “Study of the in vitro activities of rifaximin and comparator agents against 536 anaerobic intestinal bacteria from the perspective of potential utility in pathology involving bowel flora” (Antimicrob Agents Chemother, 2009)
Converted amounts (≈) assume the structure as drawn.

Legend:
Parabacteroides merdae = experiment: Antimicrobial activity against Parabacteroides merdae by Wadsworth agar dilution method; format: functional
Clostridium perfringens = experiment: Antimicrobial activity against Clostridium perfringens by Wadsworth agar dilution method; format: functional
Prevotella intermedia = experiment: Antimicrobial activity against Prevotella intermedia by Wadsworth agar dilution method; format: functional
[1] = tested on: Desulfovibrio desulfuricans; experiment: Antimicrobial activity against Desulfovibrio desulfuricans by Wadsworth agar dilution method; format: functional
[2] = tested on: Paraclostridium bifermentans; experiment: Antimicrobial activity against Clostridium bifermentans by Wadsworth agar dilution method; format: functional
[3] = tested on: Lactobacillus acidophilus; experiment: Antimicrobial activity against Lactobacillus acidophilus by Wadsworth agar dilution method; format: functional
Bifidobacterium bifidum = experiment: Antimicrobial activity against Bifidobacterium bifidum by Wadsworth agar dilution method; format: functional
Bacteroides uniformis = experiment: Antimicrobial activity against Bacteroides uniformis by Wadsworth agar dilution method; format: functional
[4] = Antimicrobial activity against Bifidobacterium infantis by Wadsworth agar dilution method; format: functional, Bifidobacterium longum subsp. infantis; conditions: Bifidobacterium longum
[5] = tested on: Limosilactobacillus reuteri; experiment: Antimicrobial activity against Lactobacillus reuteri by Wadsworth agar dilution method; format: functional
Lactobacillus jensenii = experiment: Antimicrobial activity against Lactobacillus jensenii by Wadsworth agar dilution method; format: functional
Clostridium bartlettii = experiment: Antimicrobial activity against Clostridium bartlettii by Wadsworth agar dilution method; format: functional; conditions: Intestinibacter bartlettii
[6] = tested on: Parabacteroides goldsteinii; experiment: Antimicrobial activity against Parabacteroides goldsteinii by Wadsworth agar dilution method; format: functional
Hoylesella loescheii = experiment: Antimicrobial activity against Prevotella loescheii by Wadsworth agar dilution method; format: functional
[7] = tested on: Clostridium paraputrificum; experiment: Antimicrobial activity against Clostridium paraputrificum by Wadsworth agar dilution method; format: functional
Ruminococcus lactaris = experiment: Antimicrobial activity against Ruminococcus lactaris by Wadsworth agar dilution method; format: functional
[8] = tested on: Coprobacillus cateniformis; experiment: Antimicrobial activity against Coprobacillus cateniformis by Wadsworth agar dilution method; format: functional
Bifidobacterium longum = experiment: Antimicrobial activity against Bifidobacterium longum by Wadsworth agar dilution method; format: functional
[9] = tested on: Bifidobacterium adolescentis; experiment: Antimicrobial activity against Bifidobacterium adolescentis by Wadsworth agar dilution method; format: functional
Fusobacterium mortiferum = experiment: Antimicrobial activity against Fusobacterium mortiferum by Wadsworth agar dilution method in presence of beta-lactamase inhibitor Sulbactam; format: functional

CO[C@H]1/C=C/O[C@@]2(C)Oc3c(C)c(O)c4c(O)c(c5c(nc6cc(C)ccn65)c4c3C2=O)NC(=O)/C(C)=C\C=C\[C@H](C)[C@H](O)[C@@H](C)[C@@H](O)[C@@H](C)[C@H](OC(C)=O)[C@@H]1C [RIFAXIMIN]
MIC (Parabacteroides merdae): 0.25 µg/mL (≈ 0.318 µM)
MIC50 (Parabacteroides merdae): 0.25 µg/mL (≈ 0.318 µM)
MIC90 (Parabacteroides merdae): 1 µg/mL (≈ 1.27 µM)
MIC50 (Clostridium perfringens): 0.25 µg/mL (≈ 0.318 µM)
MIC90 (Clostridium perfringens): 0.25 µg/mL (≈ 0.318 µM)
MIC (Prevotella intermedia): 0.25 µg/mL (≈ 0.318 µM)
MIC50 (Prevotella intermedia): 0.25 µg/mL (≈ 0.318 µM)
MIC90 (Prevotella intermedia): 0.5 µg/mL (≈ 0.636 µM)
MIC [1]: 32 µg/mL (≈ 40.7 µM)
MIC50 [1]: 32 µg/mL (≈ 40.7 µM)
MIC90 [1]: 64 µg/mL (≈ 81.4 µM)
MIC [2]: 0.25 µg/mL (≈ 0.318 µM)
MIC50 [2]: 0.25 µg/mL (≈ 0.318 µM)
MIC90 [2]: > 1020 µg/mL
MIC50 [3]: 0.5 µg/mL (≈ 0.636 µM)
MIC90 [3]: > 1020 µg/mL
MIC50 (Bifidobacterium bifidum): 0.5 µg/mL (≈ 0.636 µM)
MIC90 (Bifidobacterium bifidum): > 1020 µg/mL
MIC (Bacteroides uniformis): 0.25 µg/mL (≈ 0.318 µM)
MIC50 (Bacteroides uniformis): 0.25 µg/mL (≈ 0.318 µM)
MIC90 (Bacteroides uniformis): 0.5 µg/mL (≈ 0.636 µM)
MIC50 [4]: 0.5 µg/mL (≈ 0.636 µM)
MIC90 [4]: > 1020 µg/mL
MIC50 [5]: 0.5 µg/mL (≈ 0.636 µM)
MIC90 [5]: > 1020 µg/mL
MIC50 (Lactobacillus jensenii): 0.5 µg/mL (≈ 0.636 µM)
MIC90 (Lactobacillus jensenii): > 1020 µg/mL
MIC (Clostridium bartlettii): 0.25 µg/mL (≈ 0.318 µM)
MIC50 (Clostridium bartlettii): 0.25 µg/mL (≈ 0.318 µM)
MIC90 (Clostridium bartlettii): > 1020 µg/mL
MIC [6]: 0.25 µg/mL (≈ 0.318 µM)
MIC50 [6]: 0.25 µg/mL (≈ 0.318 µM)
MIC90 [6]: 1 µg/mL (≈ 1.27 µM)
MIC (Hoylesella loescheii): 0.25 µg/mL (≈ 0.318 µM)
MIC50 (Hoylesella loescheii): 0.25 µg/mL (≈ 0.318 µM)
MIC90 (Hoylesella loescheii): 0.5 µg/mL (≈ 0.636 µM)
MIC [7]: 0.25 µg/mL (≈ 0.318 µM)
MIC50 [7]: 0.25 µg/mL (≈ 0.318 µM)
MIC90 [7]: > 1020 µg/mL
MIC (Ruminococcus lactaris): 0.25 µg/mL (≈ 0.318 µM)
MIC50 (Ruminococcus lactaris): 0.25 µg/mL (≈ 0.318 µM)
MIC90 (Ruminococcus lactaris): 4 µg/mL (≈ 5.09 µM)
MIC50 [8]: 0.5 µg/mL (≈ 0.636 µM)
MIC90 [8]: > 1020 µg/mL
MIC50 (Bifidobacterium longum): 0.5 µg/mL (≈ 0.636 µM)
MIC90 (Bifidobacterium longum): > 1020 µg/mL
MIC50 [9]: 0.5 µg/mL (≈ 0.636 µM)
MIC90 [9]: > 1020 µg/mL
MIC50 (Fusobacterium mortiferum): 16 µg/mL
MIC90 (Fusobacterium mortiferum): > 1020 µg/mL

CN[C@H](CC(C)C)C(=O)N[C@H]1C(=O)N[C@@H](CC(N)=O)C(=O)N[C@H]2C(=O)N[C@H]3C(=O)N[C@H](C(=O)N[C@H](C(=O)O)c4cc(O)cc(O)c4-c4cc3ccc4O)[C@H](O)c3ccc(c(Cl)c3)Oc3cc2cc(c3O[C@@H]2O[C@H](CO)[C@@H](O)[C@H](O)[C@H]2O[C@H]2C[C@](C)(N)[C@H](O)[C@H](C)O2)Oc2ccc(cc2Cl)[C@H]1O [VANCOMYCIN]
MIC50 (Parabacteroides merdae): 128 µg/mL (≈ 88.3 µM)
MIC90 (Parabacteroides merdae): 128 µg/mL (≈ 88.3 µM)
MIC50 (Clostridium perfringens): 1 µg/mL (≈ 0.69 µM)
MIC90 (Clostridium perfringens): 1 µg/mL (≈ 0.69 µM)
MIC50 (Prevotella intermedia): 128 µg/mL (≈ 88.3 µM)
MIC90 (Prevotella intermedia): 256 µg/mL (≈ 177 µM)
MIC50 [1]: > 1020 µg/mL
MIC90 [1]: > 1020 µg/mL
MIC50 [2]: 1 µg/mL (≈ 0.69 µM)
MIC90 [2]: 4 µg/mL (≈ 2.76 µM)
MIC50 [3]: 1 µg/mL (≈ 0.69 µM)
MIC90 [3]: 64 µg/mL (≈ 44.2 µM)
MIC50 (Bifidobacterium bifidum): 1 µg/mL (≈ 0.69 µM)
MIC90 (Bifidobacterium bifidum): 64 µg/mL (≈ 44.2 µM)
MIC (Bacteroides uniformis): 64 µg/mL (≈ 44.2 µM)
MIC50 (Bacteroides uniformis): 64 µg/mL (≈ 44.2 µM)
MIC90 (Bacteroides uniformis): 128 µg/mL (≈ 88.3 µM)
MIC50 [4]: 1 µg/mL (≈ 0.69 µM)
MIC90 [4]: 64 µg/mL (≈ 44.2 µM)
MIC50 [5]: 1 µg/mL (≈ 0.69 µM)
MIC90 [5]: 64 µg/mL (≈ 44.2 µM)
MIC50 (Lactobacillus jensenii): 1 µg/mL (≈ 0.69 µM)
MIC90 (Lactobacillus jensenii): 64 µg/mL (≈ 44.2 µM)
MIC50 (Clostridium bartlettii): 1 µg/mL (≈ 0.69 µM)
MIC90 (Clostridium bartlettii): 4 µg/mL (≈ 2.76 µM)
MIC50 [6]: 128 µg/mL (≈ 88.3 µM)
MIC90 [6]: 128 µg/mL (≈ 88.3 µM)
MIC50 (Hoylesella loescheii): 128 µg/mL (≈ 88.3 µM)
MIC90 (Hoylesella loescheii): 256 µg/mL (≈ 177 µM)
MIC50 [7]: 1 µg/mL (≈ 0.69 µM)
MIC90 [7]: 4 µg/mL (≈ 2.76 µM)
MIC50 (Ruminococcus lactaris): 0.5 µg/mL (≈ 0.345 µM)
MIC90 (Ruminococcus lactaris): 1 µg/mL (≈ 0.69 µM)
MIC50 [8]: 1 µg/mL (≈ 0.69 µM)
MIC90 [8]: 64 µg/mL (≈ 44.2 µM)
MIC50 (Bifidobacterium longum): 1 µg/mL (≈ 0.69 µM)
MIC90 (Bifidobacterium longum): 64 µg/mL (≈ 44.2 µM)
MIC50 [9]: 1 µg/mL (≈ 0.69 µM)
MIC90 [9]: 64 µg/mL (≈ 44.2 µM)
MIC50 (Fusobacterium mortiferum): 256 µg/mL
MIC90 (Fusobacterium mortiferum): > 1020 µg/mL
